Source: patent publication EP0562731A1, “Substituted pyridinesulfonamide compounds or their salts, process for preparing the same, and herbicides containing the same” (ISHIHARA SANGYO KAISHA, Ltd., priority 1992, dated 1993)

Experiments:
Assay in all cases: Test Example 1: foliar application pot test, visual growth control rating
Assay type in all cases: in vivo
Parameters in all cases: key: 1: the same as in an untreated plot; 10: perfect growth control
Settings in all cases: wettable powder, observed 20 to 31 days after application
[1] = system: cocklebur (Xanthium strumarium)
Description: (§1) 1/1,500 are [are (a) = 100 m²] pots were filled with upland farming soil, which in the pots was then sown with a variety of plants. The plants grown will be enumerated below.
(§2) When each plant reached a given growth stage (a 1.2- to 3.0-leaf stage for rice, primary leaf to a 0.7-leaf stage for soybean, 2.1- to 3.6-leaf stage for corn, cotyledon to 0.7-leaf stage for cotton, 2.0- to 3.0-leaf stage for wheat, 0.3- to 3.4-leaf stage for cocklebur, 0.3- to 1.6-leaf stage for morning glory, 0.1- to 1.3-leaf stage for prickly sida, 0.1- to 1.3-leaf stage for slender amaranth, 1.5- to 3.2-leaf stage for barnyard glass, and 1.2- to 3.0-leaf stage for large crabgrass), a predetermined amount of the herbicide of the present invention in the form of a wettable powder, weighed out, diluted with 5 ℓ/a of water and admixed with 0.2 or 0.1 vol%, based on the resulting composition, of an agricultural spreader, was foliarly applied to the plant with a small spray gun. The progress of growth of the plant was visually observed 20 to 31 days after the foliar application to evaluate the degree of growth control according to 10 ratings (1: the same as in an untreated plot - 10: perfect growth control).

[2] = system: prickly sida (Sida spinosa)
Description: as §1, §2

corn (Zea mays) = system: corn (Zea mays)
Description: as §1, §2

[3] = system: slender amaranth (Amaranthus viridis)
Description: as §1, §2

rice (Oryza sativa) = system: rice (Oryza sativa)
Description: as §1, §2

[4] = system: barnyard grass (Echinochloa crus-galli)
Description: as §1, §2

soybean (Glycine max) = system: soybean (Glycine max)
Description: as §1, §2

wheat (Triticum) = system: wheat (Triticum)
Description: as §1, §2

[5] = system: large crabgrass (Digitaria adscendens)
Description: as §1, §2

[6] = system: morning glory (Ipomoea purpurea)
Description: as §1, §2

Compound	degree of growth control, XA ([1]; 0.31 g/a active ingredient)	degree of growth control, XA ([1]; 1.25 g/a active ingredient)	degree of growth control, ZE (corn (Zea mays); 0.31 g/a active ingredient)	degree of growth control, ZE (corn (Zea mays); 1.25 g/a active ingredient)	degree of growth control, AM ([3]; 1.25 g/a active ingredient)	degree of growth control, OR (rice (Oryza sativa); 1.25 g/a active ingredient)	degree of growth control, EC ([4]; 0.31 g/a active ingredient)	degree of growth control, EC ([4]; 1.25 g/a active ingredient)	degree of growth control, TR (wheat (Triticum); 1.25 g/a active ingredient)	degree of growth control, DI ([5]; 0.31 g/a active ingredient)	degree of growth control, DI ([5]; 1.25 g/a active ingredient)	degree of growth control, IP ([6]; 0.31 g/a active ingredient)	degree of growth control, IP ([6]; 1.25 g/a active ingredient)	other results
CCN(c1cccc(S(=O)(=O)NC(=O)Nc2nc(OC)nc(OC)n2)n1)S(=O)(=O)C(C)Cl (racemic) [Compound No. 55, 6-[[N-(1-chloroethylsulfonyl)-N-ethyl]amino]-N-[[(4,6-dimethoxytriazin-2-yl)amino]carbonyl]-2-pyridinesulfonamide]	10	10	10	10	6	9	10	10						degree of growth control, SI ([2]; 0.31 g/a active ingredient): 6; degree of growth control, SI ([2]; 1.25 g/a active ingredient): 6; degree of growth control, AM ([3]; 0.31 g/a active ingredient): 6; degree of growth control, OR (rice (Oryza sativa); 0.31 g/a active ingredient): 9
CCN(c1cccc(S(=O)(=O)NC(=O)Nc2nc(C)nc(OC)n2)n1)S(=O)(=O)C(C)F (racemic) [compound 58]									2	7	7			degree of growth control, GL (soybean (Glycine max); 0.31 g/a active ingredient): 1; degree of growth control, GL (soybean (Glycine max); 1.25 g/a active ingredient): 1; degree of growth control, TR (wheat (Triticum); 0.31 g/a active ingredient): 2
CCN(c1cccc(S(=O)(=O)NC(=O)Nc2nc(C)nc(OC)n2)n1)S(=O)(=O)C(C)Br (racemic) [compound 78]	10	10	10	10			10	10				10	10	
CCC(C)N(c1cccc(S(=O)(=O)NC(=O)Nc2nc(C)nc(OC)n2)n1)S(=O)(=O)CC(C)C (racemic) [compound 80]	6	6								2	2	5	5	degree of growth control, SI ([2]; 0.31 g/a active ingredient): 3; degree of growth control, SI ([2]; 1.25 g/a active ingredient): 3
CCC(C)N(c1cccc(S(=O)(=O)NC(=O)Nc2nc(C)nc(OC)n2)n1)S(=O)(=O)C(C)CC (racemic) [compound 81]		9		2	3	5		6	2		3		6	degree of growth control, SI ([2]; 1.25 g/a active ingredient): 2; degree of growth control, GL (soybean (Glycine max); 1.25 g/a active ingredient): 6
CCCCS(=O)(=O)N(c1cccc(S(=O)(=O)NC(=O)Nc2nc(C)nc(OC)n2)n1)C(C)CC (racemic) [compound 84]							5	5				6	6	
COc1nc(C)nc(NC(=O)NS(=O)(=O)c2cccc(N(C)S(=O)(=O)C(C)Cl)n2)n1 (racemic) [compound 85]			10	10			10	10						
CCCN(c1cccc(S(=O)(=O)NC(=O)Nc2nc(C)nc(OC)n2)n1)S(=O)(=O)C(C)Cl (racemic) [compound 86]			10	10			10	10				10	10	
COc1nc(C)nc(NC(=O)NS(=O)(=O)c2cccc(N(C(C)C)S(=O)(=O)C(C)Cl)n2)n1 (racemic) [compound 93]	10	10			9	9						9	9	degree of growth control, AM ([3]; 0.31 g/a active ingredient): 9; degree of growth control, OR (rice (Oryza sativa); 0.31 g/a active ingredient): 9
CCN(c1cccc(S(=O)(=O)NC(=O)Nc2nc(C)nc(OC)n2)n1)S(=O)(=O)C(C)C [Compound No. 1, 6-[(N-ethyl-N-isopropylsulfonyl)amino]-N-[[(4-methoxy-6-methyltriazin-2-yl)amino]carbonyl]-2-pyridinesulfonamide]					10				8	8	8			degree of growth control, AM ([3]; 0.31 g/a active ingredient): 10; degree of growth control, TR (wheat (Triticum); 0.31 g/a active ingredient): 8
CCN(c1cccc(S(=O)(=O)NC(=O)Nc2nc(OC)nc(OC)n2)n1)S(=O)(=O)C(C)C [Compound No. 2, 6-[(N-ethyl-N-isopropylsulfonyl)amino]-N-[[(4,6-dimethoxytriazin-2-yl)amino]carbonyl]-2-pyridinesulfonamide]	10	10			10									degree of growth control, AM ([3]; 0.31 g/a active ingredient): 10
CCCN(c1cccc(S(=O)(=O)NC(=O)Nc2nc(C)nc(OC)n2)n1)S(=O)(=O)CC [Compound No. 3]		8		8	10	6		9	4		6		5	degree of growth control, SI ([2]; 1.25 g/a active ingredient): 6; degree of growth control, GL (soybean (Glycine max); 1.25 g/a active ingredient): 3
CCCN(c1cccc(S(=O)(=O)NC(=O)Nc2nc(OC)nc(OC)n2)n1)S(=O)(=O)C(C)C [Compound No. 5]	10	10					10	10						
CCN(c1cccc(S(=O)(=O)NC(=O)Nc2nc(OC)nc(OC)n2)n1)S(=O)(=O)C(Cl)Cl [Compound No. 57, 6-[(N-dichloromethylsulfonyl-N-ethyl)amino]-N-[[(4,6-dimethoxytriazine-2-yl)amino]carbonyl]-2-pyridinesulfonamide]	10	10							6	9	9	10	10	degree of growth control, TR (wheat (Triticum); 0.31 g/a active ingredient): 6
COc1nc(C)nc(NC(=O)NS(=O)(=O)c2cccc(N(OC)S(=O)(=O)C(C)C)n2)n1 [compound 41]			10	10			10	10						
CCN(c1cccc(S(=O)(=O)NC(=O)Nc2nc(C)nc(OC)n2)n1)S(=O)(=O)C(Cl)Cl [compound 56]	10	10	10	10		9	10	10	10	10	10			degree of growth control, TR (wheat (Triticum); 0.31 g/a active ingredient): 10; degree of growth control, OR (rice (Oryza sativa); 0.31 g/a active ingredient): 9
CCN(c1cccc(S(=O)(=O)NC(=O)Nc2nc(C)nc(OC)n2)n1)S(=O)(=O)C(C)(C)Cl [compound 87]	10	10												
COc1nc(C)nc(NC(=O)NS(=O)(=O)c2cccc(N(C)S(=O)(=O)C(Br)(Br)Br)n2)n1 [compound 89]	10	10								7	7			
CCN(c1cccc(S(=O)(=O)NC(=O)Nc2nc(C)nc(OC)n2)n1)S(=O)(=O)C(Br)(Br)Br [compound 90]	10	10					10	10		6	6			degree of growth control, SI ([2]; 0.31 g/a active ingredient): 6; degree of growth control, SI ([2]; 1.25 g/a active ingredient): 6
CCN(c1cccc(S(=O)(=O)NC(=O)Nc2nc(C)nc(OC)n2)n1)S(=O)(=O)C(Cl)(Cl)Cl [compound 91]	10	10				9			9			9	9	degree of growth control, TR (wheat (Triticum); 0.31 g/a active ingredient): 9; degree of growth control, OR (rice (Oryza sativa); 0.31 g/a active ingredient): 9
